10 compounds from PubChem BioAssay (NCI) can be followed below.

Usually TGI stands for the concentration giving total growth inhibition. In general, GI50 refers to the concentration that inhibits growth by half.

Assay in all cases: DTP human tumour cell line panel, 48 h
Assay [1] relates to HS 578T breast.
Assay [2] concerns LOX IMVI melanoma.
In assay [3] the test system is MDA-MB-231 breast.
The test system of assay [4] is MOLT-4 leukemia.
Assay [5] deals with NCI-H23 lung.
In assay [6] the test system is PC-3 prostate.
The subject of assay [7] is SF-539 CNS.
In assay [8] the test system is SN12C renal.
Assay [9] has as its system SR leukemia.
Assay [10] has as its system SW-620 colon.

Molecules are shown by their SMILES. Values joined by “and” are separate entries in the source; they are usually repeats but may differ in a detail not shown here. Equal entries are not always repeated.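 Five concentrations, 48 hours, 96-well plates. The concentration for 50% growth inhibition is given as GI50. TGI: concentration producing complete growth inhibition.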

Turning to `O=C(O)CC1NCc2cc3ccccc3nc21` (stereo not drawn), the TGI in assay [1], in [2], in assay [3], in assay [4], in assay [5] and in assay [6] was over 100 µM throughout. Besides, the TGI in assay [7], in assay [8], in [9] and in assay [10] was over 100 µM each time.
For the compound `COc1ccc2cc(CN3CCC(C4CCNCC4)CC3)ccc2c1`, the TGI was over 30.5 µM in assay [1]; 2.94 µM in [2]; 5.08 µM in assay [3]; 4.84 µM in assay [4]; 33 µM in assay [5]; 28 µM in assay [6]. The total growth inhibition concentration (TGI) worked out at 4.03 µM in [7], 23 µM in assay [8], 5.16 µM in [9] and 3.42 µM in assay [10].
With `COC(=O)c1cnc(Cl)cn1`, the TGI in assay [1] is over 100 µM; in assay [2], over 100 µM; in assay [3], over 100 µM; in assay [4], over 100 µM; in [5], 54 µM; in [6], over 100 µM. The TGI in assay [7], in assay [8], in assay [9] and in [10] was over 100 µM each time.
As to `CC1OC(OC2C(OC(=O)[C@]34CCC(C)(C)C[C@H]3C3=CC[C@@H]5[C@@]6(C)CC[C@H](OC7OC(C(=O)O)C(O)C(OC8OCC(O)C(O)C8O)C7O)C(C)(C)[C@@H]6CC[C@@]5(C)[C@]3(C)CC4)OCC(O)C2O)C(O)C(OC2OCC(O)C(O)C2O)C1OC1OCC(O)C(OC2OCC(O)C(O)C2O)C1O` (stereo partly drawn), the concentration for total growth inhibition (TGI) was 37.9 µM and 62.4 µM in assay [1]; 26.3 µM and 35.5 µM in assay [2]; 14.2 µM and 12.9 µM in [3]; 25 µM and 49.8 µM in assay [4]; 21.7 µM and 33 µM in [5]; 21.7 µM and 23.1 µM in assay [6]. Moreover, the TGI in assay [7] was 68.7 µM; in assay [8], 7.2 µM and 21.6 µM; in assay [9], 8.95 µM and 26.8 µM; in assay [10] it was 29.5 µM and > 100 µM. In addition, the GI50 in [8] was 2.85 µM and 8.35 µM; in assay [9], 2.83 µM and 11.1 µM; in assay [10] it was 13.6 µM and 27.4 µM.
Turning to `CCCCCCCCCCCCOCCCOP(=O)([O-])OCC[N+](C)(C)C`, the TGI in [1] came to 57.7 µM; in [2] it was 59.8 µM; in assay [3] it was 40.1 µM; in assay [4], 65.1 µM; in assay [5], 99.2 µM; in assay [6], 9.73 µM. The TGI was 54.9 µM in [7], over 76.7 µM in assay [8], over 73.5 µM in assay [9] and over 100 µM in assay [10].
`c1c[nH]c(C23C4C5C6C4C2C6C53)n1` (stereo not drawn): the TGI in assay [1], in [2], in [3], in [4], in assay [5] and in [6] was over 100 µM each time. Also, the TGI in assay [7], in assay [8], in assay [9] and in assay [10] was over 100 µM each time.
For `CCOC(=O)C(Cc1cccn1C(=O)OC(C)(C)C)[N+](=O)[O-]` (stereo not drawn), the TGI in assay [1] is 75.9 µM; in assay [2] it was 32.1 µM; in assay [3] it was 44.7 µM; in assay [4], 50.4 µM; in [5], over 100 µM; in assay [6], 45.3 µM. Also, the TGI in [7] was 58.7 µM; in assay [8], 62.9 µM; in assay [9], 45 µM; in assay [10], 59.2 µM.
On to `O=C(N/N=C1/C(=O)c2c3ccccc3cc3cccc1c23)c1ccccc1`, for which the TGI in assay [1] was over 73.2 µM; in assay [2], over 100 µM; in assay [3], over 100 µM; in assay [4], over 100 µM; in [5] it was over 100 µM; in assay [6] it was over 84.1 µM. In addition, the TGI in assay [7], in assay [8], in [9] and in [10] was over 100 µM in each case.
Take `CC1(C)C2CC(=O)C1(C)C(OCc1ccccc1)C2` (stereo not drawn): the TGI in assay [1] is 77 µM; in assay [2], 68.4 µM; in assay [3], over 100 µM; in assay [4], 46.6 µM; in assay [5], over 100 µM; in assay [6], over 100 µM. Also, the TGI in assay [7] is over 100 µM; in assay [8], over 100 µM; in assay [9], 81.1 µM; in assay [10], 87.3 µM.
Turning to `CC(C)=CCC/C(C)=C/CC/C(C)=C/CC/C(=C/CC/C(C)=C\CC/C(C)=C/CC/C(C)=C/CC/C(C)=C/Cc1cc(O)ccc1O)CO`, the concentration for total growth inhibition (TGI) in [1] was 8.44 µM; in assay [2], over 23.4 µM; in assay [3], over 78.8 µM; in assay [4], over 59.5 µM; in [5] it was 4.89 µM; in assay [6], 15.5 µM. Further, the TGI was 2.48 µM in assay [7], over 100 µM in assay [8], over 37.6 µM in [9] and 42.5 µM in [10].
